Results: US9708338B2, “Aromatic heterocyclylamine derivative having TRPV4-inhibiting activity” (Shionogi & Co., Ltd., priority 2013, dated 2017)
pIC50: −log10 of the molar value.

Assays:
human TRPV4 [1] = target: T1, human TRPV4 (Homo sapiens, UniProt Q9HBA0); experiment: Test Example 1 Measurement of TRPV4 inhibitory activity (IC50 value); assay type: cell-based; conditions: CHO-K1 cells stably expressing human TRPV4; Fluo 4-AM, FLIPR TETRA; final 1 μmol/L 4α-PDD
T1 construct: expressed in transfected cells; host or cells: CHO-K1
T1 sequence (Q9HBA0 whole entry): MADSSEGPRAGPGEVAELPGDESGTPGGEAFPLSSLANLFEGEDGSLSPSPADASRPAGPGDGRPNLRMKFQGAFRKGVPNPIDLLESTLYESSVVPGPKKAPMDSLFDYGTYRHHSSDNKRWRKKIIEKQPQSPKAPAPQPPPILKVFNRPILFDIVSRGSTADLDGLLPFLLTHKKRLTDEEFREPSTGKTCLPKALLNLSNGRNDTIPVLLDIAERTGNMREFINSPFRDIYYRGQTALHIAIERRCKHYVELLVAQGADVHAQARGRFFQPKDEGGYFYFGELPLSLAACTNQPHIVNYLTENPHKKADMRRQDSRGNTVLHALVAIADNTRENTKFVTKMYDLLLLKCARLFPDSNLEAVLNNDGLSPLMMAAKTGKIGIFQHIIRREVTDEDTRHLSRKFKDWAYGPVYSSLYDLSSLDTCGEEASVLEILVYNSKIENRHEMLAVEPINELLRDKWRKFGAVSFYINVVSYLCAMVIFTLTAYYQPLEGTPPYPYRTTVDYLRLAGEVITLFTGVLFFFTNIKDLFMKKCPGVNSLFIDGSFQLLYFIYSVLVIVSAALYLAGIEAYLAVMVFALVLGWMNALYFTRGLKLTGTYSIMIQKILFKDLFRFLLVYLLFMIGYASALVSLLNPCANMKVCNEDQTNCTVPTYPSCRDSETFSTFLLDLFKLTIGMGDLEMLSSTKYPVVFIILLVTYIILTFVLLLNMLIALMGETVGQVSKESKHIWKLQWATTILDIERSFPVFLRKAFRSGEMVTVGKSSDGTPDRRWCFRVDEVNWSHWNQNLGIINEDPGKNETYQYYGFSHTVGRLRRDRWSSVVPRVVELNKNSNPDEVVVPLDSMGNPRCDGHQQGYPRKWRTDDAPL
Experimental: (§1) For each compound, TRPV4 inhibitory activity was measured using cells. (Method) TRPV4 inhibitory activity of the compound was evaluated in accordance with the following procedure.
(§2) (1) The TRPV4 inhibitory activity was measured using CHO-K1 cells stably expressing human TRPV4.
(2) In the day before the experimental day, frozen cell were thawed and washed with the culture medium (MEM-α, 10% FBS, 2 mmol/L GlutaMax, 50 unit Penicillin, 50 μg/mL Streptomycin, 20 mmol/L HEPES). Then cells were suspended in the culture medium.
(3) The 384-well plates which hTRPV4/CHO cells were seeded at densities of 4000 cells/well in the culture medium and cultured in a CO2 incubator in the presence of 5% CO2 at 37° C. for overnight was used as assay plates.
(4) The assay plate was washed with assay buffer (Hanks, 20 mmol/L HEPES, 2.5 mmol/L probenecid, pH 7.4), and the buffer were remained at 20 μL/well.
(5) 10 μl of dye loading buffer (9 μmol/L Fluo 4-AM, 0.09% Pluronic F-127/assay buffer) was added to each well, then the assay plate was incubated in a CO2 incubator in the presence of 5% CO2 at 37° C. for one hour (final 3 μmol/L Fluo4-AM).
(6) The assay plate was washed with the assay buffer, and the buffers were remained at 20 μL/well. Then the assay plate was incubated for 10 min at room temperature.
(7) 20 μL/well of diluted compound solution was dispensed to each well in the compound plate, and mixed with built-in Pipette and Mixer of the Fluorescence analysis system FLIPR TETRA (Molecular devices).
(8) After incubation for 5 min, 20 μL/well of 4α-PDD solution were applied to each well of assay plate and mixed with the FLIPR TETRA (final 1 μmol/L 4α-PDD).
(9) The fluorescent intensity was measured with FLIPR TETRA system for 5 min from the point of time addition the compound solution, at Ex 470-495 nm, Em 515-575 nm wavelength.
(§3) In addition, TRPV4 inhibitory activity (IC50 value) of a compound was evaluated according to the following procedure.
(10) In the presence of the compound, the difference between maximal and minimal of fluorescent intensity value for 5 min from just before addition of 4α-PDD solution was calculated, and it was referred as Max−Min value. Max−Min value of the compound A at 1 μmol/L was defined as 100% inhibitory activity, Max−Min value in the absence of the compound was defined as 0% inhibitory activity. The TRPV4 inhibitory activity of the compound was calculated by the following formula. Inhibition ratio=(1−(Max−Min value of the compound−100% inhibitory activity)/(0% inhibitory activity−100% inhibitory activity))×100
Herein, the compound A is the compound I-186 described in PCT/JP2013/058722.
(11) Inhibitory activity was calculated at 10 points with three fold serial dilution, in the final concentration of the compound from 10 μmol/L to 0.5 nmol/L, the IC50 value (nmol/L) was calculated by logistic approximation method.

CYP3A4 = target: T2, CYP3A4 (Homo sapiens, UniProt P08684); experiment: Test Example 3 CYP3A4 fluorescent MBI test; assay type: in vitro ADME; conditions: CYP3A4 expressed in Escherichia coli; substrate 7-BFC; pre-reaction time 0 or 30 minutes
T2 construct: host or cells: Escherichia coli
T2 sequence (P08684 whole entry): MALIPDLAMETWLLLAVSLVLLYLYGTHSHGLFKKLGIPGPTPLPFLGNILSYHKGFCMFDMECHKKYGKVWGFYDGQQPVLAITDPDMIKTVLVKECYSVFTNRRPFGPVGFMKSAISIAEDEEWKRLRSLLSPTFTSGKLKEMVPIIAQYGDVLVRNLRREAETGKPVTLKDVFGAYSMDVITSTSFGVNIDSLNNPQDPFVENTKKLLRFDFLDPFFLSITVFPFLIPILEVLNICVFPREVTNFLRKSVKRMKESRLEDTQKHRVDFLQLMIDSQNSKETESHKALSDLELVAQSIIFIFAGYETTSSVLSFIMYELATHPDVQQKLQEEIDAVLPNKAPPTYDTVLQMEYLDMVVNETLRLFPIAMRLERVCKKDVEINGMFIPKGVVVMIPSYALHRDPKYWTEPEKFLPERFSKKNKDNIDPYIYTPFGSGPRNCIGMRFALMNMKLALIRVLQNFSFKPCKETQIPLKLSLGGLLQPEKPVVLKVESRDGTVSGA
Experimental: The CYP3A4 fluorescent MBI test is a test of investigating enhancement of CYP3A4 inhibition of a compound of the present invention by a metabolism reaction, and the test was performed using, as CYP3A4 enzyme expressed in Escherichia coli and employing, as an index, a reaction in which 7-benzyloxytrifluoromethylchmarin (7-BFC) is debenzylated by the CYP3A4 enzyme to produce a metabolite, 7-hydroxytrifluoromethylchmarin (7-HFC) emitting fluorescent light.
The reaction conditions were as follows: substrate, 5.6 μmol/L 7-BFC; pre-reaction time, 0 or 30 minutes; reaction time, 15 minutes; reaction temperature, 25° C. […]
An enzyme in a K-Pi buffer (pH 7.4) and a solution of a compound of the present invention as a pre-reaction mixture were added to a 96-well plate at the above composition of the pre-reaction, a part of it was transferred to another 96-well plate so that it was 1/10 diluted by a substrate in a K-Pi buffer, NADPH as a co-factor was added to initiate a reaction as an index (without preincubation) and, after a predetermined time of a reaction, acetonitrile/0.5 mol/L Tris (trishydroxyaminomethane)=4/1 (v/v) was added to stop the reaction. […] For the plate on which each index reaction had been performed, a fluorescent value of 7-HFC which is a metabolite was measured with a fluorescent plate reader. […]

[2] = Test Example 7 Metabolism stability test; assay type: in vitro ADME; conditions: 0.5 μmol/L of test compound, human liver microsomes 0.5 mg protein/mL, 37° C.
Experimental: Using commercially available pooled human hepatic microsomes, a compound of the present invention was reacted for a constant time, and a remaining rate was calculated by comparing a reacted sample and an unreacted sample, thereby, a degree of metabolism in liver was assessed.
A reaction was performed (oxidative reaction) at 37° C. for 0 minute or 30 minutes in the presence of 1 mmol/L NADPH in 0.2 mL of a buffer (50 mmol/L Tris-HCl pH 7.4, 150 mmol/L potassium chloride, 10 mmol/L magnesium chloride) containing 0.5 mg protein/mL of human liver microsomes. After the reaction, 50 μL of the reaction solution was added to 100 μL of a methanol/acetonitrile=1/1 (v/v), mixed and centrifuged at 3000 rpm for 15 minutes. The compound of the present invention in the supernatant was quantified by LC/MS/MS, and a remaining amount of the compound of the present invention after the reaction was calculated, letting a compound amount at 0 minute reaction time to be 100%. Hydrolysis reaction was performed in the absence of NADPH and glucuronidation reaction was in the presence of 5 mmol/L UDP-glucuronic acid in place of NADPH, followed by similar operations. (Result) % inhibition was shown at 0.5 μmol/L of test compound.

[3] = target: T3, human ether-a-go-go related gene (hERG) channel (Homo sapiens, UniProt Q12809); experiment: Test Example 8 hERG test; assay type: cell-based; conditions: 1 μmol/L of test compound; CHO cells expressing hERG; whole cell patch clamp (QPatch)
T3 construct: expressed in transfected cells; host or cells: CHO
T3 sequence (Q12809 whole entry): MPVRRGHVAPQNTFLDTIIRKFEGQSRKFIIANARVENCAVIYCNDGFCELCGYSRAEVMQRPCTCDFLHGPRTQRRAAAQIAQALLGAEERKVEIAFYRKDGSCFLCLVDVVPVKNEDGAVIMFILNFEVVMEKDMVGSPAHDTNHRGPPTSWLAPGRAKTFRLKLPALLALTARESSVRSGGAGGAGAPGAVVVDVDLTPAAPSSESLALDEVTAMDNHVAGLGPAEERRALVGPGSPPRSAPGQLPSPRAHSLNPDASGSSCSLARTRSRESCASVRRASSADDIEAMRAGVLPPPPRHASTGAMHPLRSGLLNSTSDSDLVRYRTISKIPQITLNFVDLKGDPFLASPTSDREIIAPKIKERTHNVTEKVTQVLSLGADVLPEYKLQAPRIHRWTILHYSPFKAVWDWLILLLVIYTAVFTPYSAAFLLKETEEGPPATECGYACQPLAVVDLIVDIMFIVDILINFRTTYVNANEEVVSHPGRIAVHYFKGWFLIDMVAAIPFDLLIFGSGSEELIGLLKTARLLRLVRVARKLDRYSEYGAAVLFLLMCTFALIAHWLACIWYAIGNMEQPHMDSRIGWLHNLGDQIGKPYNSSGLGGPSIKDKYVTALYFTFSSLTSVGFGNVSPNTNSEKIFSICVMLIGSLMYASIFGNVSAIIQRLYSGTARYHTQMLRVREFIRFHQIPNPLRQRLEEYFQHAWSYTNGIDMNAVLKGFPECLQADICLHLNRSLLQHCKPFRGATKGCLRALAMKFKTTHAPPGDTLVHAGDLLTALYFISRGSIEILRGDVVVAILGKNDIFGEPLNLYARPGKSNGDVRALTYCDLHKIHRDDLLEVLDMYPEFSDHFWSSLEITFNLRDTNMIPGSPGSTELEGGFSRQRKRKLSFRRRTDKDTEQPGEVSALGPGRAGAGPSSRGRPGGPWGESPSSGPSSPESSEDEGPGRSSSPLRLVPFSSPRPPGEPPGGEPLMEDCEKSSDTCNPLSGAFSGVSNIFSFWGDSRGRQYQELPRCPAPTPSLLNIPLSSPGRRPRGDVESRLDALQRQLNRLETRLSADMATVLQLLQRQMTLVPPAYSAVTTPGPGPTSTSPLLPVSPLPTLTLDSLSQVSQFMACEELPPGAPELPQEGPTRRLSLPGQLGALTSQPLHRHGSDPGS
Text: For the purpose of assessing risk of an electrocardiogram QT interval prolongation of the compound of the present invention, effects of the compound of the present invention on delayed rectifier K^+ current (IKr), which plays an important role in the ventricular repolarization process, was studied using CHO cells expressing human ether-a-go-go related gene (hERG) channel.
After a cell was retained at a membrane potential of −80 mV by whole cell patch clamp method using an automated patch clamp system (QPatch; Sophion Bioscience A/S), IKr induced by depolarization pulse stimulation at +20 mV for 2 seconds and, further, repolarization pulse stimulation at −50 mV for 2 seconds, was recorded. […] From the recording IKr, an absolute value of the tail peak current was measured based on the current value at the resting membrane potential using analysis software (Falster Patch; Sophion Bioscience A/S). Further, the % inhibition relative to the tail peak current before application of the compound of the present invention was calculated, and compared with the vehicle-applied group (0.1% dimethyl sulfoxide solution) to assess influence of the compound of the present invention on IKr. […]

human TRPV4 [4] = target: T1, human TRPV4; experiment: Test Example 2' Measurement of TRPV4 inhibitory activity (IC50 value); assay type: cell-based; conditions: CHO-K1 cells stably expressing human TRPV4; DMEM 3% FBS, 3000 cells/well; final 0.15 μmol/L 4α-PDD
Experimental: as §1, §2
(2) In the day before the experimental day, frozen cell were thawed and washed with the culture medium (DMEM, 3% FBS, 2 mmol/L GlutaMax, 50 unit Penicillin, 50 μg/mL Streptomycin, 0.1 mmol/L Non-Essential Amino Acids, 25 mmol/L HEPES). Then cells were suspended in the culture medium. […] (7) 20 μL/well of diluted compound solution was dispensed to each well in the compound plate, and mixed with built-in Pipette and Mixer of the Fluorescence analysis system FLIPR TETRA (Molecular devices). […] (9) The fluorescent intensity was measured with FLIPR TETRA system for 5 min from the point of time addition the compound solution, at Ex 470-495 nm, Em 515-575 nm wavelength.
as §3
(10) In the presence of the compound, the difference between maximal and minimal of fluorescent intensity value for 5 min from just before addition of 4α-PDD solution was calculated, and it was referred as Max−Min value. […] The TRPV4 inhibitory activity of the compound was calculated by the following formula. […]

SMILES	pIC50 (human TRPV4 [1])	CYP3A4 fluorescent MBI: difference between IC50 values (CYP3A4)	Percent of compound remaining after 30 min incubation [2]	hERG % inhibition of tail peak current (IKr) [3]	pIC50 (human TRPV4 [4])
Cc1nc(C(C)O)sc1-c1csc(Nc2ccc(CNc3ccc(Cl)cc3F)cn2)n1.Cl.Cl (stereo not shown) [Compound I-157]	7.85	(−) (when the difference is 3 μmol/L or less, this was defined as (−))	83.6%	–	–
Cc1nc(C)c(-c2csc(Nc3ccc(CNc4ccc(Cl)cc4F)cn3)n2)s1 [Compound I-48]	8.92	–	78.6%	8.1%	–
Cc1nc(C)c(-c2csc(Nc3ccc(C(=O)C4CCCC4)cn3)n2)s1 [Compound I-897]	–	–	–	–	8.55
